The text below walks through data of ChEMBL document CHEMBL2169819, “Synthesis and biological evaluation of 2-amino-3-(4-chlorobenzoyl)-4-[(4-arylpiperazin-1-yl)methyl]-5-substituted-thiophenes. effect of the 5-modification on allosteric enhancer activity at the A1 adenosine receptor” (J Med Chem, 2012).

The structures appear in SMILES notation.

For assay [1], the target named is T1, Adenosine receptor A1 (Homo sapiens) (UniProt P30542).
T1 sequence (whole entry): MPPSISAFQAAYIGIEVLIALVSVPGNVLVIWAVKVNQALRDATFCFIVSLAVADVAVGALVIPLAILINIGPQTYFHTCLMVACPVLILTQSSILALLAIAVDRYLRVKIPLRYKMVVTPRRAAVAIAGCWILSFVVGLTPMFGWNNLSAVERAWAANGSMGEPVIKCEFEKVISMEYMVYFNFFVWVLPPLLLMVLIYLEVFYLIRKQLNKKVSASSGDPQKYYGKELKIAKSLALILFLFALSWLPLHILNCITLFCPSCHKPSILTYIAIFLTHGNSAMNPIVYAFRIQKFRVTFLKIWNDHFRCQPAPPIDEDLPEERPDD
Kind of assay: Allosteric enhancing activity at human adenosine A1 receptor expressed in CHO cells assessed as increase in [3H]-2-chloro-N6-cyclopentyladenosine Bmax at 10 uM after 90 mins relative to control. The format is cell-based.

For assay [2], the target named is T1, Adenosine receptor A1 (Homo sapiens). Kind of assay: Allosteric enhancing activity at human adenosine A1 receptor expressed in CHO cells assessed as inhibition of forskolin-stimulated cAMP accumulation at 10 uM incubated for 10 mins prior to forskolin-stimulation measured after 5 mins by competition protein binding assay. The format is functional, cell-based. (cAMP levels reflect the balance of adenylyl cyclase and phosphodiesterase activity.)

Assay [3] has the same target. Kind of assay: Displacement of [3H]DPCPX from human adenosine A1 receptor expressed in CHO cells at 10 uM after 120 mins by scintillation counting. The format is cell-based. For orientation: Loss of bound radioactivity is the signal in a displacement assay; it reports binding, not function.
Assay [4] has as its target Adenosine receptor A2a (Homo sapiens) (UniProt P29274). The assay is described as follows: Displacement of [3H]ZM241385 from human adenosine A2A receptor expressed in CHO cells at 10 uM after 120 mins by scintillation counting. The class given is cell-based.
For assay [5], the target named is T2, Adenosine receptor A3 (Homo sapiens) (UniProt P0DMS8).
T2 sequence (whole entry): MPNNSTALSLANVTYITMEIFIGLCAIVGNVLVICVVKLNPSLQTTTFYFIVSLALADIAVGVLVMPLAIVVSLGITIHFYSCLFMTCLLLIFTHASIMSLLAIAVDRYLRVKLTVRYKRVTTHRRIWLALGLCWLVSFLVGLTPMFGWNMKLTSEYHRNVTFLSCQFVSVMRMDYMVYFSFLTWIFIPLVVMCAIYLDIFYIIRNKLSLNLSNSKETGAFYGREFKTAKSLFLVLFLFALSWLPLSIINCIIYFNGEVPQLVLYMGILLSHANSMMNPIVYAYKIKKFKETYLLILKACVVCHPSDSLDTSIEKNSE
The assay is described as follows: Displacement of [3H]MRE-3008-F20 from human adenosine A3 receptor expressed in CHO cells at 10 uM after 120 mins by scintillation counting. The format is cell-based.

The target of assay [6] is T1, Adenosine receptor A1 (Homo sapiens). Kind of assay: Allosteric enhancing activity at human adenosine A1 receptor expressed in CHO cells assessed as inhibition of forskolin-stimulated cAMP accumulation at 100 nM incubated for 10 mins prior to forskolin-stimulation measured after 5 mins by competition protein binding assay in presence of 2-chloro-N6-cyclopentyladenosine. The format is functional, cell-based.

For assay [7] the target is unchanged. Kind of assay: Allosteric enhancing activity at human adenosine A1 receptor expressed in CHO cells assessed as increase in CCPA-induced [3H]DPCPX displacement at 10 uM after 90 mins relative to control. The class given is cell-based.

Sequence of Adenosine receptor A2a (Homo sapiens) (P29274 whole entry): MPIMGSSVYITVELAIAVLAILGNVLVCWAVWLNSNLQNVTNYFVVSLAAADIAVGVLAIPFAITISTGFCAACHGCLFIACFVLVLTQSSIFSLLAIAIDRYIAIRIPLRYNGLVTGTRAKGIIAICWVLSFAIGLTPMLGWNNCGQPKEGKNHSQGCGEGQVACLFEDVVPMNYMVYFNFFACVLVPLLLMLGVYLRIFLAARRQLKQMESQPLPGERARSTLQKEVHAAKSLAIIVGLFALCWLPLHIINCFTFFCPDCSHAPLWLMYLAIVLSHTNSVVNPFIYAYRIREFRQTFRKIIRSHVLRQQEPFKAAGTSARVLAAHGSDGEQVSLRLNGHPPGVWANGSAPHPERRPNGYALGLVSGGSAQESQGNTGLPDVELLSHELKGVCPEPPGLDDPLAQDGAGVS

Turning to `Nc1sc(-c2ccccc2)c(CN2CCN(c3ccc(Cl)c(C(F)(F)F)c3)CC2)c1C(=O)c1ccc(Cl)cc1`, the fold change (FC) in assay [1] was found to be 8.5. Also, the inhibition in assay [2] is 64%; in assay [3] it was less than 12%; in assay [4], less than 12%; in assay [5], less than 12%; in assay [6], 65%. Also, the Ratio Ki in assay [7] turned out to be 7.9.
Turning to `Nc1sc(-c2ccccc2)c(CN2CCN(c3ccc(F)cc3)CC2)c1C(=O)c1ccc(Cl)cc1`, the fold change (FC) in assay [1] came to 11.1. Besides, the inhibition was 77% in assay [2]; less than 12% in assay [3]; less than 12% in assay [4]; less than 12% in assay [5]; 71% in assay [6]. Besides, in assay [7], the Ratio Ki is 9.4.
Consider `Nc1sc(-c2ccc(Cl)cc2)c(CN2CCN(c3cccc(C(F)(F)F)c3)CC2)c1C(=O)c1ccc(Cl)cc1`, for which, in assay [1], the fold change (FC) stood at 11.8. Moreover, the inhibition in assay [2] is 81%; in assay [3] it was less than 12%; in assay [4] it was less than 12%; in assay [5], less than 12%; in assay [6], 78%. In assay [7], the Ratio Ki is 13.
Take `Cc1sc(N)c(C(=O)c2ccc(Cl)cc2)c1CN1CCN(c2ccc(Cl)cc2)CC1`: the fold change (FC) in assay [1] was 4.7. Moreover, the inhibition in assay [2] is 44%; in assay [3], less than 12%; in assay [4] it was less than 12%; in assay [5], less than 12%; in assay [6], 40%. Moreover, in assay [7], the Ratio Ki stood at 4.2.
Take `COc1ccc(N2CCN(Cc3c(C)sc(N)c3C(=O)c3ccc(Cl)cc3)CC2)cc1`: the fold change (FC) in assay [1] was found to be 3.2. Further, the inhibition in assay [2] was 31%; in assay [3] it was less than 12%; in assay [4], less than 12%; in assay [5], less than 12%; in assay [6], 30%. For the same molecule, the Ratio Ki in assay [7] was found to be 2.6.
Turning to `Cc1sc(N)c(C(=O)c2ccc(Cl)cc2)c1CN1CCN(c2ccccc2)CC1`, the fold change (FC) in assay [1] worked out at 6.8. Besides, the inhibition was 59% in assay [2]; less than 12% in assay [3]; less than 12% in assay [4]; less than 12% in assay [5]; 57% in assay [6]. Besides, the Ratio Ki in assay [7] was 6.4.
Take `Nc1sc(-c2ccc(F)cc2)c(CN2CCN(c3ccc(F)cc3)CC2)c1C(=O)c1ccc(Cl)cc1`: the fold change (FC) in assay [1] came to 11.7. The inhibition in assay [2] is 82%; in assay [3] it was less than 12%; in assay [4], less than 12%; in assay [5] it was less than 12%; in assay [6], 77%. Also, the Ratio Ki in assay [7] stood at 9.5.
On to `Nc1sc(-c2ccccc2)c(CN2CCN(c3ccccc3)CC2)c1C(=O)c1ccc(Cl)cc1`, for which the fold change (FC) in assay [1] amounted to 11.5. Besides, the inhibition in assay [2] is 79%; in assay [3], less than 12%; in assay [4], less than 12%; in assay [5] it was less than 12%; in assay [6] it was 74%. In assay [7], the Ratio Ki is 8.3.
As to `CCc1sc(N)c(C(=O)c2ccc(Cl)cc2)c1CN1CCN(c2ccc(F)cc2)CC1`, the fold change (FC) in assay [1] is 6.7. In addition, the inhibition was 63% in assay [2]; less than 12% in assay [3]; less than 12% in assay [4]; less than 12% in assay [5]; 55% in assay [6]. The Ratio Ki in assay [7] turned out to be 3.8.
`Cc1sc(N)c(C(=O)c2ccc(Cl)cc2)c1CN1CCN(c2ccc(Cl)c(Cl)c2)CC1`: the fold change (FC) in assay [1] was determined as 5.9. The inhibition was 56% in assay [2]; less than 12% in assay [3]; less than 12% in assay [4]; less than 12% in assay [5]; 51% in assay [6]. Also, the Ratio Ki in assay [7] was 5.4.
Turning to `Nc1sc(-c2ccccc2)c(CN2CCN(c3ccc(OC(F)(F)F)cc3)CC2)c1C(=O)c1ccc(Cl)cc1`, the fold change (FC) in assay [1] is 9.4. Also, the inhibition in assay [2] is 67%; in assay [3], less than 12%; in assay [4] it was less than 12%; in assay [5] it was less than 12%; in assay [6], 69%. Besides, the Ratio Ki in assay [7] stood at 8.4.

What is called inhibition is the relative decrease from the control value, in per cent.
